Data as given in patent publication US20030049249A1 (priority 2001, published 2003).

Columns and labels:
[1] = system: N2a/Bos2 cells exposed to 0.1% scrapie-infected brain homogenate (RML prions); format: cell-based, mouse
[2] = system: chronically scrapie-infected N2a/Bos2 cells; format: cell-based, mouse

phosphatidylinositol-specific phospholipase C [PIPLC]
effect on appearance of PrPSc ([1]; PIPLC 0.25, 0.5, 1 and 2 units/ml before and/or during exposure of a susceptible cell to prions): prevents appearance of PrPSc
concentration that sufficed to prevent appearance of PrPSc ([1]; added 2 h before and during 3-day exposure to 0.1% scrapie-infected brain homogenate, cell blot after 14 days in absence of PIPLC): 0.25 units/ml
effect on PrPSc in chronically infected cells [2]: causes rapid loss of PrPSc
